# Reference: patent US20190183843A9, “USE OF DIANHYDROGALACTITOL OR DERIVATIVES OR ANALOGS THEREOF FOR TREATMENT OF PEDIATRIC CENTRAL NERVOUS SYSTEM MALIGNANCIES” (DelMar Pharmaceuticals, Inc., priority 2015, published 2019)
# Read-outs that look alike come from different tables or passages of the source.
# Columns and labels:
# [1] = cited from earlier work
# [2] = system: cisplatin-resistant 2780CP-16, OVCAR-10, Hey and OVCA-433 tumor models; test: MTT growth inhibition assay, 5-day drug exposure; format: cell-based, human; details: 5-day exposure
# Excerpt: (§1) The analysis of cytotoxicity, depicted as IC50 (concentration inhibiting growth of cells by 50%) or as fraction of cells affected (Fa) at a specified concentration of drug, is based on the data generated from the MTT growth inhibition assay following a 5-day drug exposure period. The IC50 values were generated by fitting Fa values from a range of drug concentrations to a four-parameter logistic dose-response sigmoidal equation using the Graphpad Prism v.6 software. Resistance factors (for the ovarian panel) were calculated as the ratio of IC50 in the specific tumor model to the IC50 in A2780.
# (§2) Cytotoxicity was determined against cisplatin-sensitive A2780 and cisplatin-resistant 2780CP-16, OVCAR-10, Hey and OVCA-433 tumor models with different status for p53 and mismatch repair (MMR) DNA repair system (A2780: p53 wild-type, MMR proficient; 2780CP-16: heterogenic p53 wt/V172Fmut, MMR deficient; OVCAR-10: p53 V172F mutant, MMR proficient; HEY: p53 P72R mutant, MMR proficient; OVCA-433: p53 P72R mutant, MMR proficient). IC50 for dianhydrogalactitol was about 0.5 μM in A2780 cells and in the 2-4 μM range for the cisplatin-resistant models. The activity (as IC50) of dianhydrogalactitol relative to cisplatin and oxaliplatin is shown as bar plots in FIG. 38. […] Oxaliplatin, in contrast, had good potencies against both cisplatin-sensitive (0.2 μM) and cisplatin-resistant cells (0.2-0.6 μM).
# [3] = system: MGMT-positive or -negative, MMR-proficient or -deficient cells; details: cited from earlier work
# A2780 cells = test: MTT growth inhibition assay, 5-day drug exposure; format: cell-based, human; details: 5-day exposure, cisplatin-sensitive A2780
# Excerpt: as §1, §2
# [4] = target: glycogen synthase kinase-30 (GSK-30) (Homo sapiens, UniProt P49841); details: cited from earlier work
# glycogen synthase kinase-30 (GSK-30), sequence (P49841 whole entry): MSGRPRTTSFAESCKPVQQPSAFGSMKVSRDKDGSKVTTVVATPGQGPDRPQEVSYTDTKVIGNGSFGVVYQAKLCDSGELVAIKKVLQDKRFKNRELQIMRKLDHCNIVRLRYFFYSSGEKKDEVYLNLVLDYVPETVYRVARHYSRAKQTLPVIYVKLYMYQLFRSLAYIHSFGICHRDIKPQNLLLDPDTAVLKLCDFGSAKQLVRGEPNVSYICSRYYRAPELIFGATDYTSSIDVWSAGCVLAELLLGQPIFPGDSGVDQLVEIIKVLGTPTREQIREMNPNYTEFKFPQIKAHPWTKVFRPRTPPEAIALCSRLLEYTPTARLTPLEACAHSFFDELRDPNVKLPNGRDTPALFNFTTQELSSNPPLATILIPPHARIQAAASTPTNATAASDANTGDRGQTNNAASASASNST
structure (smiles),measurement,setting,value
O[C@H]([C@H](O)[C@@H](O)CBr)[C@H](O)CBr [dibromodulcitol],absorption by the oral route,[1],rapid and fairly complete
N.N.[Cl][Pt][Cl] [cisplatin],IC50,[2],3000 to 8000 nM
same,sensitivity,"[3]; MGMT Negative, MMR-Deficient",Resistant
same,sensitivity,"[3]; MGMT Negative, MMR-Proficient",Sensitive
same,sensitivity,"[3]; MGMT Positive, MMR-Deficient",Resistant
same,sensitivity,"[3]; MGMT Positive, MMR-Proficient",Sensitive
"O=C1[O][Pt]2([NH][C@@H]3CCCC[C@H]3[NH]2)[O]C1=O [oxaliplatin, reference compound]",IC50,[2],200 to 600 nM
same,IC50,A2780 cells,200 nM
CN1C(=O)/C(=C2/C(=O)Nc3ccccc32)c2ccccc21 [Meisoindigo],concentration inhibiting GSK,[4],5 to 50 nM
